Four compounds from ChEMBL document CHEMBL1201862, “PubChem BioAssay data set” (2004) can be followed below.

Structures are written as SMILES.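 In this assay, cells in 96-well plates receive the compound at five concentrations for 48 hours. Endpoints are linearly interpolated between the surrounding concentrations. Here, GI50 denotes the concentration required for 50% inhibition of growth.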 Active and inactive are the calls of the source. Rule as the data show it: active = GI50 up to about 1.1 µM and inactive = higher.

Some test systems named below: SK-MEL-2; M14; CCRF-CEM; SNB-78; OVCAR-4; CAKI-1; Malme-3M; HCT-15; XF498; UACC-257; DMS-273; DMS-114; HCT-116; SF-268; 786-0; UACC-62; SNB-19.
Test in all cases: growth of human tumour cells (NCI), 48 h

Regarding `NC(=O)NNC(=O)NC12CC3CC(CC(C3)C1)C2`, the GI50 with SK-MEL-2, in the test on M14, with CCRF-CEM, with SNB-78, in the test on OVCAR-4 and with CAKI-1 was > 100 µM (inactive) throughout. For the same compound, the GI50 is > 100 µM (inactive) in the test on Malme-3M; > 100 µM with HCT-15; > 100 µM (inactive) in the test on XF498; > 100 µM (inactive) in the test with UACC-257; > 100 µM (inactive) in the test on DMS-273; > 100 µM (inactive) with DMS-114. Further, the GI50 with HCT-116, in the test on SF-268, in the test on 786-0, in the test with UACC-62 and in the test with SNB-19 was > 100 µM (inactive) in each case.
Regarding `COc1ccc(/C=C/c2cc(OC)cc(OC)c2)cc1` [TRISMETHOXYRESVERATROL], the GI50 is 6.07 µM (inactive) with SK-MEL-2; 6.53 µM (inactive) in the test with M14; 3.97 µM (inactive) in the test with CCRF-CEM; 3.98 µM (inactive) with SNB-78; 18.9 µM (inactive) in the test with OVCAR-4; 4.6 µM (inactive) with CAKI-1. For the same compound, the GI50 with Malme-3M was 6.12 µM (inactive); in the test with HCT-15, 4.57 µM; in the test on XF498, 8.43 µM (inactive); in the test with UACC-257 it was 4.62 µM (inactive); in the test with DMS-273 it was 3.79 µM (inactive); with DMS-114, 3.5 µM (inactive). The GI50 with HCT-116 is 4.17 µM (inactive); in the test with SF-268 it was 7.93 µM (inactive); in the test with 786-0, 9.66 µM (inactive); in the test with UACC-62, 3.56 µM (inactive); in the test with SNB-19, 20.7 µM (inactive).
Turning to `Cc1cc(C)nc(NS(=O)(=O)c2ccc(NC(=O)c3ccc(Cl)c4c(Nc5ccc(S(=O)(=O)Nc6nc(C)cc(C)n6)cc5)c5ccccc5nc34)cc2)n1`, the GI50 is 13.7 µM (inactive) in the test with SK-MEL-2; 2.64 µM (inactive) in the test with M14; 4.09 µM (inactive) with CCRF-CEM; 3.71 µM (inactive) in the test with SNB-78; 11 µM (inactive) with OVCAR-4; 42.3 µM (inactive) with CAKI-1. Also, the GI50 is 14.4 µM (inactive) in the test on Malme-3M; 26.9 µM in the test with HCT-15; > 100 µM (inactive) with XF498; 27.7 µM (inactive) in the test on UACC-257; 6.34 µM (inactive) with DMS-273; 2.87 µM (inactive) with DMS-114. The GI50 is 1.82 µM (inactive) with HCT-116; 4.41 µM (inactive) with SF-268; 5.18 µM (inactive) in the test with 786-0; 2.04 µM (inactive) with UACC-62; 4.89 µM (inactive) with SNB-19.
In the case of `CC(C)(C)/N=N/C(C)(C)N=C=O`, the GI50 in the test on SK-MEL-2, in the test on M14, with CCRF-CEM, with SNB-78, in the test on OVCAR-4 and in the test on CAKI-1 was > 100 µM (inactive) throughout. Also, the GI50 with Malme-3M is > 100 µM (inactive); in the test on HCT-15, > 100 µM; with XF498 it was > 100 µM (inactive); in the test with UACC-257 it was > 100 µM (inactive); with DMS-273 it was > 100 µM (inactive); in the test on DMS-114, > 100 µM (inactive). Further, the GI50 in the test with HCT-116, in the test on SF-268, in the test on 786-0, with UACC-62 and in the test on SNB-19 was > 100 µM (inactive) throughout.
